Test results as given in paper PMC6683251, “Flavanol Bioavailability in Two Cocoa Products with Different Phenolic Content. A Comparative Study in Humans” (Nutrients, 2019).
Read-outs that look alike come from different tables or passages of the source.

What was measured:
[1] = Plasma nutrikinetics of flavanol metabolites after a single serving of soluble cocoa product (HPLC-ESI-QToF-MS); type: in vivo, human; conditions: for Detection of un-metabolized compound in the collected biological fluids: plasma and urine, CC and CC-PP; for AUC: human plasma 0-8 h; for AUC / Tmax / Cmax: mean ± SD, n = 13; for Tmax / Cmax: human plasma; for Cmax: read-out: Cmax
Protocol: The study was carried out in thirteen healthy subjects (3 men and 10 women); the mens’ average age and body mass index were 26.67 ± 3.21 year and 22.47 ± 2.97 kg/m^2, respectively, and womens’ were 32.60 ± 9.85 year and 23.36 ± 3.73 kg/m^2, respectively. They were non-smoker, non-vegetarian, non-pregnant women, who were not taking any medication or nutritional supplements, and were not suffering from any chronic pathology or gastrointestinal disorder. The sample size was estimated attending to similar previous bioavailability studies. The volunteers gave their informed consent prior to participation.
The present randomized, single-blind study was carried out at the Human Nutrition Unit (HNU) of the Institute of Food Science, Technology and Nutrition (ICTAN). Volunteers attended the HNU on two days, separated by two weeks. Three days previous to each visit, participants were instructed not to consume cocoa products (chocolate, soluble cocoa, etc.), juices, tea, wine, grape must, oranges, tangerines, apples, grapes, strawberries or other berries, beets, onions, soybeans and soy derivatives. In addition, volunteers were asked to complete a 24 h food intake recall the day before they attended the HNU in order to monitor any possible food restriction incompliance.
On each intervention day, volunteers arrived at the HNU after an overnight fast. Prior to the intake of the soluble cocoa product, a nurse inserted a cannula in the cubital vein of the non-prevailing arm of the volunteers and blood samples were collected into EDTA-coated tubes at baseline (t = 0) and 0.5, 1, 2, 3, 4, 6, and 8 h after consuming the corresponding cocoa product. The soluble cocoa products, either 15 g of CC or 25 g CC-PP, were dissolved in 200 mL of semi-skimmed milk following manufacturer’s preparation instructions. Plasma was separated by centrifugation (10 min, 3000 rpm, 4 °C) and stored at −80 °C until further analysis. Urine samples were collected at different time intervals (t = −2–0, 0–4, 4–8, 8–12, and 12–24 h) in urine collection flasks that contained 0.5 g of ascorbic acid as preservative and were aliquoted and frozen at −20 °C until analysis. A polyphenol-free breakfast, lunch and afternoon snack were provided 2 h, 4 h, and 8 h after consumption of cocoa products, and water and isotonic beverages were available ad libitum.
A liquid–liquid extraction and protein precipitation with acetonitrile was used to isolate metabolites from plasma. A 1 mL defrosted plasma sample was mixed with 50 μL of ascorbic acid (0.2 g/mL). After vortexing the aqueous mixture, it was added drop wise to 750 μL of cold acetonitrile and vortexed for 2 min before centrifuging at 12,000 rpm for 10 min at 4 °C. The supernatant was separated, and the pellet was re-extracted twice more following the same procedure. Supernatants were combined and reduced to dryness under a stream of nitrogen at 30 °C. The dried samples were resuspended in 150 μL of aqueous formic acid (0.1%) containing 10% acetonitrile acidified with 0.1% formic acid and centrifuged at 4 °C for 20 min at 14,000 rpm. The final supernatant was collected, filtered (0.45 μm pore-size, cellulose-acetate membrane filters, Albet, Dassel (Germany)) and 30 μL were analyzed by high-performance liquid chromatography coupled to electrospray ionisation and quadrupole time-of-flight mass spectrometry (HPLC-ESI-QToF-MS).
Analyses were performed on an Agilent 1200 series LC system coupled to an Agilent 6530A Accurate-Mass Quadrupole Time-Of-Flight (Q-ToF) with ESI-Jet Stream Technology (Agilent Technologies). Compounds were separated on a reverse-phase Ascentis Express C18 (15 cm × 3 mm, […]) column (Sigma-Aldrich Química, Madrid) preceded by a Supelco 55215-U guard column at 30 °C. […]

[2] = Urinary excretion of flavanol metabolites (0-24 h) after a single serving of soluble cocoa product (HPLC-ESI-QToF-MS); type: in vivo, human; conditions: mean ± SD, n = 13; for Excreted in urine, Basal: basal urine (−2–0 h, before intake); for Excreted in urine, Total: 24 h urine
Protocol: They were non-smoker, non-vegetarian, non-pregnant women, who were not taking any medication or nutritional supplements, and were not suffering from any chronic pathology or gastrointestinal disorder. The sample size was estimated attending to similar previous bioavailability studies. The volunteers gave their informed consent prior to participation.
The present randomized, single-blind study was carried out at the Human Nutrition Unit (HNU) of the Institute of Food Science, Technology and Nutrition (ICTAN). Volunteers attended the HNU on two days, separated by two weeks. Three days previous to each visit, participants were instructed not to consume cocoa products (chocolate, soluble cocoa, etc.), juices, tea, wine, grape must, oranges, tangerines, apples, grapes, strawberries or other berries, beets, onions, soybeans and soy derivatives.
On each intervention day, volunteers arrived at the HNU after an overnight fast. […] The soluble cocoa products, either 15 g of CC or 25 g CC-PP, were dissolved in 200 mL of semi-skimmed milk following manufacturer’s preparation instructions. Plasma was separated by centrifugation (10 min, 3000 rpm, 4 °C) and stored at −80 °C until further analysis. […] A polyphenol-free breakfast, lunch and afternoon snack were provided 2 h, 4 h, and 8 h after consumption of cocoa products, and water and isotonic beverages were available ad libitum.
Urine samples were diluted with an equivalent volume of Milli-Q water (50%) and centrifuged at 14000 rpm (10 min, 4 °C). Supernatants were filtered (0.45 μm pore-size cellulose-acetate membrane filters) and a 5 µL aliquot was directly injected into the LC-ESI-QToF-MS equipment.
The test samples, either 30 μL of the plasma extract or 5 μL of diluted urine, were injected and separated using a mobile phase consisting of Milli-Q water (phase A) and acetonitrile (phase B), both containing 0.1% formic acid, at a flow rate of 0.3 mL/min. The mobile phase was initially programmed with 90% of solvent A and 10% of B. The elution program increased to 30% of solvent B in 10 min. Then, the initial conditions (10% solvent B) were recovered in 5 min and maintained for 5 min.
Due to the lack of standards for certain phase II metabolites, they were tentatively quantified using the calibration curves of their corresponding phenolic precursors. […] The rest of microbial metabolites identified, derivatives of hydroxyphenylpropionic, hydroxyphenylacetic, hydroxybenzoic and hippuric acids, were quantified using their respective commercially available standards. Urine concentration of the excreted metabolites was normalized by the volume excreted in each studied interval. […] Calibration curves were freshly prepared in a pool of both plasma and urine due to matrix effects.
Statistical analyses were carried out using the program SPSS (version 23.0, SPSS, Inc., IBM Company, New York, NY, USA). Significant differences between metabolites excreted in urine after consumption of CC and CC-PP cocoa products were evaluated based on non-parametric Wilcoxon test (p < 0.05). To determine the absorption and elimination of epicatechin metabolites after consumption of the soluble cocoa products, metabolite nutrikinetics were studied using the pharmacokinetic functions of Microsoft Excel, calculating the maximum concentration (Cmax), area under curve (AUC) and time to reach maximum concentration (Tmax). Data are expressed as mean ± standard deviation.

[3] = after CC-PP (68.25 mg flavanols)

Molecule | Detection of un-metabolized compound in the collected biological fluids [1] | Excreted in urine, Basal ([2]; CC intervention) | Excreted in urine, Basal ([2]; CC-PP intervention) | Excreted in urine, Total ([2]; after CC (19.80 mg flavanols)) | Excreted in urine, 0–4 h ([2]; after CC (19.80 mg flavanols)) | Excreted in urine, 4–8 h ([2]; after CC (19.80 mg flavanols)) | Excreted in urine, 8–12 h ([2]; after CC (19.80 mg flavanols)) | Excreted in urine, 12–24 h ([2]; after CC (19.80 mg flavanols)) | Excreted in urine, Total [2, 3] [µmol] | Excreted in urine, 0–4 h [2, 3] | Excreted in urine, 4–8 h [2, 3] [µmol] | Excreted in urine, 8–12 h [2, 3] | Excreted in urine, 12–24 h [2, 3] | AUC ([1]; after CC (19.80 mg flavanols)) | AUC [1, 3] | Tmax ([1]; after CC (19.80 mg flavanols)) [h] | Cmax ([1]; after CC (15 g in 200 mL semi-skimmed milk, 19.80 mg flavanols)) [nM] | Tmax [1, 3] [h] | Cmax ([1]; after CC-PP (25 g in 200 mL semi-skimmed milk, 68.25 mg flavanols)) [nM]
Oc1cc(O)c2c(c1)O[C@H](c1ccc(O)c(O)c1)[C@H](O)[C@H]2c1c(O)cc(O)c2c1O[C@H](c1ccc(O)c(O)c1)[C@@H](O)C2 [procyanidins B1, procyanidin B1] | Neither un-metabolized epicatechin and catechin nor procyanidins B1 and B2 were detected |  |  |  |  |  |  |  |  |  |  |  |  |  |  |  |  |  | 
O=C(O)CCc1ccc(O)cc1 [Hydroxyphenylpropionic acid] |  | 0.118 ± 0.023 µmol | 0.074 ± 0.013 µmol | 0.883 ± 0.154 µmol | 0.226 ± 0.046 µmol | 0.259 ± 0.043 µmol | 0.077 ± 0.018 µmol | 0.203 ± 0.025 µmol | 1.204 ± 0.243 | 0.350 ± 0.038 µmol | 0.356 ± 0.076 | 0.140 ± 0.041 µmol | 0.284 ± 0.075 µmol |  |  |  |  |  | 
Hydroxybenzoic acid [Hidroxybenzoic acid] |  | 0.188 ± 0.041 µmol | 0.212 ± 0.037 µmol | 0.798 ± 0.162 µmol | 0.145 ± 0.027 µmol | 0.200 ± 0.051 µmol | 0.070 ± 0.018 µmol | 0.195 ± 0.025 µmol | 1.380 ± 0.365 | 0.396 ± 0.060 µmol | 0.298 ± 0.036 | 0.172 ± 0.063 µmol | 0.302 ± 0.169 µmol |  |  |  |  |  | 
O=C(O)Cc1cccc(O)c1 [Hydroxyphenylacetic acid, 3-Hydroxyphenylacetic acid] |  | 0.369 ± 0.077 µmol | 0.585 ± 0.070 µmol | 2.208 ± 0.328 µmol | 0.408 ± 0.084 µmol | 0.605 ± 0.092 µmol | 0.225 ± 0.052 µmol | 0.600 ± 0.100 µmol | 2.862 ± 0.654 | 0.631 ± 0.140 µmol | 0.678 ± 0.231 | 0.434 ± 0.070 µmol | 0.534 ± 0.143 µmol |  |  |  |  |  | 
O.Oc1cc(O)c2c(c1)O[C@H](c1ccc(O)c(O)c1)[C@@H](O)C2 [catechin] | Neither un-metabolized epicatechin and catechin nor procyanidins B1 and B2 were detected |  |  |  |  |  |  |  |  |  |  |  |  |  |  |  |  |  | 
O=C1CCC(Cc2cccc(O)c2)O1 (stereo not drawn) [HPVL, 5-(3′-Hydroxyphenyl)-γ-valerolactone] |  |  |  | <L.Q. * |  | <L.Q. | <L.Q. | <L.Q. | 0.104 ± 0.041 | <L.Q. | 0.104 ± 0.041 | <L.Q. | <L.Q. |  |  |  |  |  | 
O=C1CCC(Cc2ccc(O[C@@H]3O[C@H](C(=O)O)[C@@H](O)[C@H](O)[C@H]3O)c(O)c2)O1 (stereo partly drawn) [HPVL-4′-glucuronide, 5-(3′-Hydroxyphenyl)-γ-valerolactone-4′-glucuronide] |  | <L.Q. | <L.Q. |  | <L.Q. |  | <L.Q. | <L.Q. | 0.961 ± 0.151 | <L.Q. | 0.330 ± 0.111 | 0.550 ± 0.015 µmol | 0.081 ± 0.025 µmol |  |  |  |  |  | 
5-Phenyl-γ-valerolactone-methoxy-glucuronide [PVL-methoxy-glucuronide] |  |  |  |  |  |  |  |  |  |  |  |  |  | 0.078 ± 0.032 | 0.091 ± 0.059 | 5.3 ± 1.0 | 22 ± 1 | 5.6 ± 1.3 | 27 ± 3
